From the NIST ThermoML archive (doi:10.1021/je9010097)
Numbers after ± are expanded uncertainties.

Assay: excess molar enthalpy (molar enthalpy of mixing); xn = mol fraction of the nth substance listed
Details: 308.15 K, 101 kPa, Liquid, Flow calorimetry

C1COCCN1 [tetrahydro-1,4-oxazine] + C1CCOCC1
Details | excess molar enthalpy [kcal/mol]
x2 = 0.101 | 0.039 ± 0.00143
x2 = 0.199 | 0.0703 ± 0.00239
x2 = 0.3 | 0.0946 ± 0.00311
x2 = 0.401 | 0.109 ± 0.00335
x2 = 0.501 | 0.115 ± 0.00359
x2 = 0.6 | 0.11 ± 0.00335
x2 = 0.702 | 0.0963 ± 0.00311
x2 = 0.8 | 0.0731 ± 0.00239
x2 = 0.899 | 0.0411 ± 0.00143

C1COCCN1 [tetrahydro-1,4-oxazine] + C1CCCCC1
Details | excess molar enthalpy [kcal/mol]
x2 = 0.1 | 0.146 ± 0.00502
x2 = 0.201 | 0.261 ± 0.00837
x2 = 0.3 | 0.354 ± 0.011
x2 = 0.401 | 0.418 ± 0.0129
x2 = 0.5 | 0.446 ± 0.0139
x2 = 0.6 | 0.436 ± 0.0134
x2 = 0.7 | 0.392 ± 0.0122
x2 = 0.801 | 0.312 ± 0.0098
x2 = 0.9 | 0.195 ± 0.00645

C1COCCN1 [tetrahydro-1,4-oxazine] + C1COCCO1
Details | excess molar enthalpy [kcal/mol]
x2 = 0.108 | 0.0296 ± 0.000956
x2 = 0.201 | 0.0507 ± 0.00167
x2 = 0.303 | 0.0681 ± 0.00215
x2 = 0.403 | 0.0772 ± 0.00239
x2 = 0.506 | 0.0791 ± 0.00239
x2 = 0.6 | 0.0753 ± 0.00239
x2 = 0.703 | 0.0645 ± 0.00215
x2 = 0.803 | 0.0495 ± 0.00167
x2 = 0.905 | 0.0272 ± 0.000956
